Consider 1 compound from patent publication US9823260B2, “Method to increase bioavailability of the delta-opioid receptor for management of pain and neuropsychiatric disorders” (priority 2014, dated 2017).

What all share (type): in vivo
The subject of one assay is mice. As to the kind of experiment: Mechanical hyperalgesia in a CFA model for chronic pain. As to conditions: CFA 72 hours; bpv(phen) 10 mg/kg SC, four hours later SNC 80 3 mg/kg IP. As to the method: (§1) In this experiment, thermal nociception was determined by using the warm water tail withdrawal assay, with a cut-off of 12 s at 52.5° C. water temperature. After 3 basal measurements, mice were injected with vehicle or bpv(phen)(10 mg/kg SC), and returned to their home cages. Four hours post-injection, tail immersion responses were determined and mice were injected with vehicle or SNC80 (10 mg/kg IP). They were subsequently tested every 15 minutes for 90 minutes. All animals were male C57b16J mice of 9-10 weeks of age, n=8 per group. […] Mechanical allodynia was tested using standard protocols (such as the protocols disclosed by Pradhan et al., 2009, PMID: 1941254) on male C57b16J mice 9-10 weeks old, n=8 per group. Mice were injected with vehicle or bpv(phen)(10 mg/kg), and tested four hours after for reduced allodynia in response to SNC-80. […] Mechanical hyperalgesia was tested in a CFA model for chronic pain. After baseline recordings, mice were injected with CFA (13 μl, intraplantar) and were tested 72 hours later. On the test day, mice received either bpv(phen)(10 mg/kg SC) or vehicle. […]
(§2) As shown next in FIG. 12 (left), thermal nociception was determined by using the warm water tail withdrawal assay, with a cut-off of 12 s at 52.5° C. water temperature. […] Four hours post-injection, tail immersion responses were determined and mice were injected with vehicle or SNC80 (10 mg/kg IP). […]

Assay [1] concerns male C57BL6J mice. In words: Warm water tail withdrawal assay (thermal nociception). As to the method:
(§3) The first three graphs in FIG. 2 show the function response of DOR on the surface. An EPAC FRET sensor was used with live cell imaging under physiologic conditions of 37° C. The modulation of the cAMP activity was determined by performing a ratiometric analysis of an the donor fluorophore (Cyan Fluorescent Protein) image divided by the FRET image yielding a blue color for low cAMP and red for high cAMP. DOR was concomitantly visualized by fluorescent tagging. […] The two images on the bottom-right of FIG. 2 show data in an experiment in which mechanical allodynia and tail withdrawal latency was performed in male C57BL6J mice 9-10 weeks old to determine the effects of the DOR agonist SNC-80 in the presence or absence of PTEN inhibition. […] All mice received SNC-80 (10 mg/kg IP). Additionally, pretreatment of mice with the PTEN inhibitor bpv(Phen) increased the antinociceptive effect of the DOR agonist SNC-80. Together, these methods can be used for stimulated DOR delivery as a convergent strategy for improving the efficacy of DOR agonists.
as §1, with “Four hours post-injection, tail immersion responses were determined and mice were injected with vehicle or SNC80 (10 mg/kg IP).” left out, “pain.” for “pain. After baseline recordings, mice were injected with CFA (13 μl, intraplantar) and were tested 72 hours later. On the test day, mice received either bpv(phen)(10 mg/kg SC) or vehicle.”
As shown next in FIG. 12 (left), thermal nociception was determined by using the warm water tail withdrawal assay, with a cut-off of 12 s at 52.5° C. water temperature. […]

In assay [2] the test system is male C57BL6J mice. In words: Mechanical allodynia test. As to the method: as §3, with “Additionally, pretreatment of mice with the PTEN inhibitor bpv(Phen) increased the antinociceptive effect of the DOR agonist SNC-80. Together, these methods can be used for stimulated DOR delivery as a convergent strategy for improving the efficacy of DOR agonists.” left out
In this experiment, thermal nociception was determined by using the warm water tail withdrawal assay, with a cut-off of 12 s at 52.5° C. water temperature. […] Four hours post-injection, tail immersion responses were determined and mice were injected with vehicle or SNC80 (10 mg/kg IP). […]
as §2

[3] abbreviates: 2 hour pretreatment with bpV(phen) 10 mg/kg, SNC-80 10 mg/kg IP, versus vehicle.

For the compound `O.O.O.OO.OO.[K+].[OH-].[V].c1cnc2c(c1)ccc1cccnc12` [bpV(phen)], the “mechanical hyperalgesia response to SNC 80” value in the assay on mice is recorded as “showed a response to SNC80”. In addition, the “tail withdrawal latency with SNC-80” value with male C57BL6J mice [1] (setting [3]) is “increased compared to vehicle control treated mice”. Moreover, the “analgesic response to PTEN inhibition alone” value in the assay with male C57BL6J mice [1] (bpV(phen) without SNC-80, mechanical allodynia and tail withdrawal) is given as “did not induce an analgesic response”. In addition, the “tail immersion response versus baseline without SNC80” value with male C57BL6J mice [1] (vehicle or bpv(phen) 10 mg/kg SC, no SNC80, 52.5° C., tested every 15 minutes for 90 minutes) is “did not show any significant deviation from the baseline”. Further, the “mechanical allodynia (threshold) with SNC-80” value in the assay with male C57BL6J mice [2] (setting [3]) is “increased compared to vehicle control treated mice”. The “reduced allodynia in response to SNC-80” value in the assay on male C57BL6J mice [2] (bpv(phen) 10 mg/kg, tested four hours after) is listed as “showed a response”.
